We go through four compounds from US6555535B2, “Tricyclic biphenyl sulfonamide matrix metalloproteinase inhibitors” (Warner-Lambert Company, priority 2001, dated 2003).

Holding throughout (type): biochemical
The target in one assay is T1, MMP-2FL (Homo sapiens, UniProt P08253).
T1 sequence (P08253 110-660): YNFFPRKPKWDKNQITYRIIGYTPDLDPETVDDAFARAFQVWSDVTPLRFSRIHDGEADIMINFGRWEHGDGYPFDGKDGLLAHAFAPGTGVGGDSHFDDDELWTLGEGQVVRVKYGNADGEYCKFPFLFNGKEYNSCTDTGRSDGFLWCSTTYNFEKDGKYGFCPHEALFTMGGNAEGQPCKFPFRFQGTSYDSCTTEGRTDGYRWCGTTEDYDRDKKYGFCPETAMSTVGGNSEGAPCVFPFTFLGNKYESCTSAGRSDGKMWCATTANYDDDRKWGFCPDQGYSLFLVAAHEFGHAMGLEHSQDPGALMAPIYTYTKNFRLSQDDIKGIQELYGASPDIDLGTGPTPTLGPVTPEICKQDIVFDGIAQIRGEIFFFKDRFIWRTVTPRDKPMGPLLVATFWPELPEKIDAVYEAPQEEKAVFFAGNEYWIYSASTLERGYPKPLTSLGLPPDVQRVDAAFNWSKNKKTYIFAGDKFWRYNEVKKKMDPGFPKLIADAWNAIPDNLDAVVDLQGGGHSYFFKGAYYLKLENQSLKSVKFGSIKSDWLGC
As to the kind of experiment: thiopeptolide hydrolysis assay, full length Gelatinase A. Particulars: thiopeptolide substrate, HEPES pH 7.0, 22° C. The text has this:
(§1) The assays measure the amount by which a test compound reduces the hydrolysis of a thiopeptolide substrate catalyzed by a matrix metalloproteinase enzyme. Such assays are described in detail by Ye et al., in Biochemistry, 1992;31(45):11231-11235, which is incorporated herein by reference.
(§2) Thiopeptolide substrates show virtually no decomposition or hydrolysis at or below neutral pH in the absence of a matrix metalloproteinase enzyme. A typical thiopeptolide substrate commonly utilized for assays is Ac-Pro-Leu-Gly-thioester-Leu-Leu-Gly-OEt. A 100 μL assay mixture will contain 50 mM of N-2-hydroxyethylpiperazine-N′-2-ethanesulfonic acid buffer (“HEPES”) at pH 7.0, 10 mM CaCl2, 100 μM thiopeptolide substrate, and 1 mM 5,5′-dithio-bis-(2-nitro-benzoic acid) (DTNB). The thiopeptolide substrate concentration may be varied from, for example, 10 to 800 μM to obtain Km and Kcat values. The change in absorbance at 405 nm is monitored on a Thermo Max microplate reader (Molecular Devices, Menlo Park, Calif.) at room temperature (22° C.). The calculation of the amount of hydrolysis of the thiopeptolide substrate is based on E412=13600 M^−1 cm^−1 for the DTNB-derived product 3-carboxy-4-nitrothiophenoxide. Assays are carried out with and without matrix metalloproteinase inhibitor compounds, and the amount of hydrolysis is compared for a determination of inhibitory activity of the test compounds.
(§3) Several representative compounds have been evaluated for their ability to inhibit various matrix metalloproteinase enzymes. In Table 1, MMP-1FL refers to full length interstitial collagenase; MMP-2FL refers to full length Gelatinase A; MMP-3CD refers to the catalytic domain of stromelysin-1; MMP-7FL refers to full length matrilysin; MMP-9FL refers to full length Gelatinase B; MMP-13CD refers to the catalytic domain of collagenase 3; and MMP-14CD refers to the catalytic domain of MMP-14. Test compounds were evaluated at various concentrations in order to determine their respective IC50 values, the micromolar concentration of compound required to cause a 50% inhibition of the catalytic activity of the respective enzyme.

The next assay addresses T2, MMP-7FL (Homo sapiens, UniProt P09237).
T2 sequence (P09237 95-267): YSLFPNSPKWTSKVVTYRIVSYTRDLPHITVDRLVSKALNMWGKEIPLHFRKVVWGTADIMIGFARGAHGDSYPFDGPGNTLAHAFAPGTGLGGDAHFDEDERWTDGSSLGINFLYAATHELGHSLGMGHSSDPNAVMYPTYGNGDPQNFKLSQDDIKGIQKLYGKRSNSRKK
Put plainly: thiopeptolide hydrolysis assay, full length matrilysin. As to conditions: thiopeptolide substrate, HEPES pH 7.0, 22° C.
Source text: as §1, §2, §3

Another assay concerns the target MMP-13CD (Homo sapiens, UniProt P45452). As to the kind of experiment: thiopeptolide hydrolysis assay, catalytic domain of collagenase 3. As to conditions: thiopeptolide substrate, HEPES pH 7.0, 22° C.
Source text: as §1, §2, §3

Another assay addresses MMP-3CD (Homo sapiens, UniProt P08254). Put plainly: thiopeptolide hydrolysis assay, catalytic domain of stromelysin-1. Particulars: thiopeptolide substrate, MES buffer pH 6.0.
Source text: as §1, §2, §3
It should be appreciated that the assay buffer used with MMP-3CD was 50 mM of 2-morpholinoethanesulfonic acid monohydrate (“MES”) at pH 6.0, rather than the HEPES buffer at pH 7.0 described above.

The target in another assay is MMP-14CD (Homo sapiens, UniProt P50281). As to the kind of experiment: thiopeptolide hydrolysis assay, catalytic domain of MMP-14. As to conditions: thiopeptolide substrate, HEPES pH 7.0, 22° C.
Source text: as §1, §2, §3

The next assay addresses MMP-9FL (Homo sapiens, UniProt P14780). As to the kind of experiment: thiopeptolide hydrolysis assay, full length Gelatinase B. Particulars: thiopeptolide substrate, HEPES pH 7.0, 22° C.
Source text: as §1, §2, §3

The target in a further assay is T3, MMP-1FL (Homo sapiens, UniProt P03956).
T3 sequence (P03956 100-469): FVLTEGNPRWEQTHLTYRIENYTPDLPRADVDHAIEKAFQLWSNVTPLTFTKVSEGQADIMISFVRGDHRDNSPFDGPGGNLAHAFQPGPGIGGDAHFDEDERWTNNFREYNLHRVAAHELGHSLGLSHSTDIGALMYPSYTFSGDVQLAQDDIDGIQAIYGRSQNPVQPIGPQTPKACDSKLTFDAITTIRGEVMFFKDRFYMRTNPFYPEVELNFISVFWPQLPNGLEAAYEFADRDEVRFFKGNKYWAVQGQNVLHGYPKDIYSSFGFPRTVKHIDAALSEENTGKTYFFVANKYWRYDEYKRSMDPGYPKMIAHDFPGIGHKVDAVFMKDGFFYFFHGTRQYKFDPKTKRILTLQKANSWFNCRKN
As to the kind of experiment: thiopeptolide hydrolysis assay, full length interstitial collagenase. Particulars: thiopeptolide substrate, HEPES pH 7.0, 22° C.
Source text: as §1, §2, §3

MMP-9FL, sequence (P14780 94-707): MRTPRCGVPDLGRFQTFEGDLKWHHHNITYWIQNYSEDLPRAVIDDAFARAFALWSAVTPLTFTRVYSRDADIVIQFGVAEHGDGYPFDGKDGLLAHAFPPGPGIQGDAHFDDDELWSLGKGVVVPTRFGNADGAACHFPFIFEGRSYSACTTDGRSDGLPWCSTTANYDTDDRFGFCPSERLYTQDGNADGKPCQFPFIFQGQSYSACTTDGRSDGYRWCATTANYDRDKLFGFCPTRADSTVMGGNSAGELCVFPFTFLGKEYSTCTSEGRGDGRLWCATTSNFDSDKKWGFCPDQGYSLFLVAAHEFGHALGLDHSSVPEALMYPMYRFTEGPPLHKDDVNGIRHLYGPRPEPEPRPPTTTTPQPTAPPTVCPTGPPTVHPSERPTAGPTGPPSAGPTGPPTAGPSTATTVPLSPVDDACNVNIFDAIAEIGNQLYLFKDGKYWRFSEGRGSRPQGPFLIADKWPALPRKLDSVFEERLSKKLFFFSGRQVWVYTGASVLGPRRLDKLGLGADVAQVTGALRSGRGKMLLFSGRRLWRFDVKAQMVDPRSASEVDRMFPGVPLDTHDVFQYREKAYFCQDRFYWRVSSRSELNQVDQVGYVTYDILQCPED
MMP-3CD, sequence (P08254 100-272 limits assumed): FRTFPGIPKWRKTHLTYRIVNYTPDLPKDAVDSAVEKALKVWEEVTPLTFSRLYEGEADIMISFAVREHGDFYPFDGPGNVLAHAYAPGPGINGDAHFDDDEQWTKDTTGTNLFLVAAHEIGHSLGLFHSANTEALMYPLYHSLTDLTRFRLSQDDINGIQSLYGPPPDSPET

In general, IC50 refers to the point on the concentration scale where inhibition reaches its midpoint. Low values mean inhibition by little substance, high ones a need for much substance. As to `CC1(C)SCCN(S(=O)(=O)c2ccc3c4c(oc3c2)CCCC4)[C@H]1C(=O)O` [Example 3, (S)-2,2-Dimethyl-4-(6,7,8,9-tetrahydro-dibenzofuran-3-sulfonyl)thiomorpholine-3-carboxylic Acid], the IC50 against MMP-2FL was 390 nM; against MMP-7FL, 100000 nM; against MMP-13CD, 1310 nM; on MMP-3CD, 39 nM; against MMP-14CD, 150 nM; at MMP-9FL, 54000 nM. It took 6900 nM to reach half-maximal inhibition at MMP-1FL (IC50).

As to `CC1(C)C(C(=O)NO)N(S(=O)(=O)c2ccc3c4c(oc3c2)CCCCC4)CCS1(=O)=O` (stereo not shown) [Example 7, 2,2-Dimethyl-1,1-dioxo-4-(6,7,8,9-tetrahydro-5H-10-oxa-benzo{a}azulene-2-sulfonyl)-1l^6-thiomorpholine-3-carboxylic Acid Hydroxyamide], the IC50 against MMP-2FL is 220 nM; against MMP-7FL, 420 nM; on MMP-13CD, 6.2 nM; against MMP-3CD it was 15 nM; against MMP-14CD it was 53 nM; at MMP-9FL, 450 nM. Moreover, half-maximal inhibition at MMP-1FL (IC50) required 970 nM.

On to `CC1(C)SCCN(S(=O)(=O)c2ccc3c4c(oc3c2)CCCC4)[C@H]1C(=O)NO` [Example 4, (S)-2,2-Dimethyl-4-(6,7,8,9-tetrahydro-dibenzofuran-3-sulfonyl)thiomorpholine-3-carboxylic Hydroxamide], for which the IC50 at MMP-2FL came out at 82 nM; on MMP-7FL, 230 nM; on MMP-13CD it was 12 nM; on MMP-3CD, 9 nM; against MMP-14CD, 52 nM; against MMP-9FL, 210 nM. At MMP-1FL, this compound showed a concentration for half-maximal inhibition (IC50) of 69 nM.

For `CC1(C)C(C(=O)O)N(S(=O)(=O)c2ccc3c4c(oc3c2)CCCCC4)CCS1(=O)=O` (stereo not shown) [Example 6, 2,2-Dimethyl-1,1-dioxo-4-(6,7,8,9-tetrahydro-5H-10-oxa-benzo{a}azulene-2-sulfonyl)-1l^6-thiomorpholine-3-carboxylic Acid], the IC50 on MMP-2FL is 600 nM; against MMP-7FL, 41000 nM; against MMP-13CD, 2100 nM; at MMP-3CD, 37 nM; at MMP-14CD it was 93 nM; on MMP-9FL, 70000 nM. This compound showed an IC50 at MMP-1FL of 40000 nM.
